According to patent publication US6309630A, “Non-steroidal anti-inflammatory ophthalmic suspensions” (Insite Vision Incorporated, priority 1994, dated 2001):

Experiment: Percent Diclofenac Sodium in Suspension (dependence on concentration and pH)
Format: physicochemical
Conditions: below a pH of about 6.8; formulation containing 1% diclofenac sodium
Source text: The solubility of non-steroidal anti-inflammatory agents is pH dependent, i.e., normally the higher the pH, the higher the solubility of the drug in the formulation. […] Formulating the composition as a suspension rather than as a solution inhibits immediate contact between the drug and tissues of the eye and in that way reduces the stinging and burning sensation experienced when a solution of such drugs places all of the drug in immediate contact with the ocular tissues.
Thus, by providing at least some of the diclofenac in suspension, via pH control, lower transient burning and stinging would be observed when administered to patients.

With `O=C(O)Cc1ccccc1Nc1c(Cl)cccc1Cl` [Diclofenac Sodium, sodium ortho-(2,6-dichlorophenyl)aminophenylacetate acid] the “diclofenac in suspension (in words)” value was “virtually all of the diclofenac in suspension”.
